According to patent US20110039873A1, “SUBSTITUTED PYRAZOLO[1,5-a] PYRIDINE COMPOUNDS HAVING MULTI-TARGET ACTIVITY” (priority 2009, published 2011):
Where two headings read alike, the source gives them in different places.

Tests used:
[1] = target: T1, recombinant human phosphodiesterase 10A1 enzyme (Homo sapiens, UniProt Q9Y233); assay: PDE10 inhibition assay (PDELight); type: biochemical; conditions: for IC50: 1 uM cAMP, read-out: PDE 10 Inhibition (IC50 in μM); for PDE-10 inhibition (in words): Table 2
T1 construct: purchased BPS Biosciences; host or cells: Baculovirus infected Sf9 cells
T1 sequence (Q9Y233 1-779 isoform Q9Y233-1): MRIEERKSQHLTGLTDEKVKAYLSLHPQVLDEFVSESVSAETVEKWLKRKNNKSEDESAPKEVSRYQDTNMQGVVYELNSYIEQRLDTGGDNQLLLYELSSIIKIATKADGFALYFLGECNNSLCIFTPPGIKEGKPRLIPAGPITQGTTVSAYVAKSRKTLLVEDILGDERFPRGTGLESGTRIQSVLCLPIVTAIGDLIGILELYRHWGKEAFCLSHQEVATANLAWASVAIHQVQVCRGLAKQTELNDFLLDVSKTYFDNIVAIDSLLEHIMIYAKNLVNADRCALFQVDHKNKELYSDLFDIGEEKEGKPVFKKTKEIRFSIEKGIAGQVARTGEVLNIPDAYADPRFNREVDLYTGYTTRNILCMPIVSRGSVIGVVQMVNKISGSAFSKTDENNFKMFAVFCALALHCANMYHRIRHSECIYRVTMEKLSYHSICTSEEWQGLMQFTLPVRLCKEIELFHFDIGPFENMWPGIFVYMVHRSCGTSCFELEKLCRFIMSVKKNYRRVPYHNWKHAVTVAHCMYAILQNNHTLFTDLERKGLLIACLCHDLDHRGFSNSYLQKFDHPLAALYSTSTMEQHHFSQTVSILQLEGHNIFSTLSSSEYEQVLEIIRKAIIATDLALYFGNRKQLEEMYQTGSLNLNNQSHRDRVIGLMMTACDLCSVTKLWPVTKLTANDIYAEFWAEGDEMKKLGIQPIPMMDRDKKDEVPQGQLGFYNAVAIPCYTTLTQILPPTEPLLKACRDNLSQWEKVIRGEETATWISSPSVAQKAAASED

[2] = tested on: phosphorylated c-Jun (serine-73); assay: Phosphorylated c-JUN (6-OHDA), SH-SY5Y; type: cell-based; conditions: Homo sapiens, 50 uM 6-hydroxydopamine, 1.5 hours, read-out: p-cJun 6-OHDA SH-SY5Y (EC50 in μM)
In short: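 SH-SY5Y cells challenged with 50 uM 6-hydroxydopamine with or without compound (0-30 uM) for 1.5 hours, then paraformaldehyde-fixed. Phospho-c-Jun (Ser73) quantified by cell-based ELISA.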

[3] = tested on: phosphorylated c-Jun (serine-73); assay: Phosphorylated c-JUN (A-beta), E18 rat neuronal cells; type: cell-based; conditions: Amyloid Beta peptide 30 uM, 3 hours, read-out: p-cJun Abeta E18 (EC50 in μM)
Procedure: (§1) In 96-well plates either human SH-SY5Y neuroblastoma cells at 2.5×10^4 cells/well or E18 rat neuronal cells at 1.5×10^4 cells/well were seeded. To each well the following was added, Amyloid Beta peptide 1-25 (source) at a concentration of 30 uM, retinoic acid (10 uM) and test compounds (0-30 uM) and incubated for 3 hours. Supernatant was discarded and cells were fixed with 4% paraformaldehyde (100 ul/well) for 20 minutes. FACE cell based ELISA assay (Active Motif) was performed specific for quantifying phosphorlyated c-Jun (serine-73).

[4] = tested on: phosphorylated c-Jun (serine-73); assay: Phosphorylated c-JUN (A-beta), SH-SY5Y; type: cell-based; conditions: Homo sapiens
Procedure: as §1, with “To each well the following was added, Amyloid Beta peptide 1-25 (source) at a concentration of 30 uM, retinoic acid (10 uM) and test compounds (0-30 uM) and incubated for 3 hours.” left out

[5] = target: T2, recombinant full length human JNK2 enzyme (Homo sapiens, UniProt P45984); assay: JNK 2 inhibition assay (ATP depletion, luciferase); type: biochemical
T2 construct: recombinant full length human JNK2 or JNK3 enzyme; purchased Upstate; host or cells: Sf21 cells
T2 sequence (P45984 whole entry): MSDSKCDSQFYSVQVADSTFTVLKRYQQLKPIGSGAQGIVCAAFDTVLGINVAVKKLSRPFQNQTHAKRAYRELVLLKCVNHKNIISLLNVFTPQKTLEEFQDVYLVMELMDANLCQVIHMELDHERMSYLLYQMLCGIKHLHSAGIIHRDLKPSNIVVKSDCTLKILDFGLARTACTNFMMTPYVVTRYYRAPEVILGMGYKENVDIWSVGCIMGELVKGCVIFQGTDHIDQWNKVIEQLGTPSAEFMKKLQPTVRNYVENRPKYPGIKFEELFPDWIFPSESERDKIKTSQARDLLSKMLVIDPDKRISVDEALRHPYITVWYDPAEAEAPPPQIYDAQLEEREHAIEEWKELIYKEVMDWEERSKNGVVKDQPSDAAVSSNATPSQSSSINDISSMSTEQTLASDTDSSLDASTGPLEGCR
Procedure: In a 96-well plate, recombinant full length human JNK2 or JNK3 enzyme (40 ng) expressed in Sf21 cells (Upstate) was incubated with the substrate ATF2 (3 uM) for 1 hour in the presence of 10 uM ATP. […] IC50 calculations were plotted using a nonlinear regression curve fit.

[6] = tested on: at least one of JNK 3 or JNK 2 and at least one of PDE 10 or PDE 4; assay: Dual inhibition (phosphodiesterase and JNK); type: biochemical, human; conditions: IC50 JNK 3 or JNK 2 less than about 5.00 μM and PDE 10 or PDE 4 less than about 20.0 or 30.0 μM
In short: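 JNK2/JNK3: full-length human enzyme with 3 uM ATF2 and 10 uM ATP for 1 h, ATP depletion by luciferase luminescence. PDE4B catalytic domain with 5 uM cAMP, or PDE10A1 with 1 uM cAMP, 1 h; AMP converted to ATP for luminescence. Compounds 0–30 uM; IC50 by nonlinear regression.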

[7] = Oral pharmacokinetic evaluation; type: in vivo, rat; conditions: Sprague-Dawley rats; for half-life / AUC(0-t) / Cmax: male, rat, plasma; for half-life: Sprague-Dawley, po, 15 mg/kg; for AUC(0-t): read-out: Oral PK AUClast; for Cmax: read-out: Oral PK Cmax
Procedure: Three male Sprague-Dawley rats were dosed orally via gavage with 15 mg/kg of test compound. Serial blood samples were collected from the jugular vein at 5, 15, and 30 min, 1, 3, and 6 hours post dosing. Samples were processed for plasma via centrifugation and plasma samples were stored frozen prior to analysis via a sensitive and specific HPLC/MS/MS method. PK parameters were calculated using WinNonLin (Pharsight).

[8] = Amyloid Beta peptide 30 uM, 3 hours, read-out: p-cJun Abeta SH-SY5Y (EC50 in μM)
[9] = 10 uM ATP, ATF2 substrate, read-out: JNK 2 Inhibition (IC50 in μM)
[10] = 15 mg/kg oral gavage, read-out: Oral PK T½ (converted)
[11] = read-out: p-cJun SH-SY5Y (EC50 in μM), no Abeta
[12] = read-out: IC50 value based upon a JNK 2 inhibition assay (range given)

SMILES	IC50 [1] [µM]	PDE-10 inhibition (in words) [1]	EC50 [2] [µM]	EC50 [3] [µM]	EC50 [4, 8] [µM]	IC50 [5, 9] [µM]	dual inhibition (phosphodiesterase and JNK) [6]	half-life [7, 10] [h]	AUC(0-t) ([7]; 15 mg/kg oral gavage) [ng·h/mL]	Cmax ([7]; 15 mg/kg oral gavage) [ng/mL]	EC50 [4, 11] [µM]	IC50 [5, 12] [µM]	half life following oral dosing (in words) ([7]; oral)	half-life ([7]; oral, read-out: half life following oral dosing) [h]
CC(C)Nc1nccc(-c2c(C(C)C)nn3ccccc23)n1 [AV1137, N-isopropyl-4-(2-isopropylpyrazolo[1,5-a]pyridin-3-yl)pyrimidin-2-amine]	9.9	particularly effective	6.1	3	> 30	1.6	effective dual inhibitors	1.2	52	26	–	–	–	–
CC(C)Nc1nccc(-c2cnn3ccccc23)n1 [AV1164, N-isopropyl-4-(pyrazolo[1,5-a]pyridin-3-yl)pyrimidin-2-amine]	5.8	particularly effective	3.1	1.4	2.9	0.5	effective dual inhibitors	–	12	17	1.1	0.01 to 2	–	–
c1ccn2ncc(-c3ccnc(NC4CCCC4)n3)c2c1 [AV1165, N-cyclopentyl-4-(pyrazolo[1,5-a]pyridin-3-yl)pyrimidin-2-amine]	7.5	particularly effective	1.1	15	–	0.4	effective dual inhibitors	–	< 5	–	7.6	0.01 to 2	–	–
CC(C)Nc1nccc(-c2c(C3CC3)nn3ccccc23)n1 [AV1173, 4-(2-cyclopropylpyrazolo[1,5-a]pyridin-3-yl)-N-isopropylpyrimidin-2-amine]	7.4	particularly effective	7.7	–	–	0.3	effective dual inhibitors	9.4	462	122	–	0.01 to 2	particularly prolonged half lives	> 3
